IC50 data for 24 compounds are collected here from patent US20040224958A1, “Pyridopyrimidinone derivatives for treatment of neurodegenerative disease” (priority 2000, published 2004).

pIC50: −log10 of the molar value.

One assay has as its target cdk2/cyclinA (Homo sapiens, UniProt P24941). Briefly: Cyclin-Dependent Kinase Assay cdk2/cyclinA. The note with it: cdk2/A IC50.
The next assay addresses cdk2/cyclinE (Homo sapiens, UniProt P24941). Briefly: Cyclin-Dependent Kinase Assay cdk2/cyclinE. Particulars: cdk2/E IC50.
For another assay, the target named is cdk4/D (Homo sapiens, UniProt P11802). Briefly: Cyclin-Dependent Kinase 4 (cdk4) Assay. Particulars: read-out: cdk4/D IC50. The class given is biochemical.
Chain of cdk4/D (P11802 whole entry): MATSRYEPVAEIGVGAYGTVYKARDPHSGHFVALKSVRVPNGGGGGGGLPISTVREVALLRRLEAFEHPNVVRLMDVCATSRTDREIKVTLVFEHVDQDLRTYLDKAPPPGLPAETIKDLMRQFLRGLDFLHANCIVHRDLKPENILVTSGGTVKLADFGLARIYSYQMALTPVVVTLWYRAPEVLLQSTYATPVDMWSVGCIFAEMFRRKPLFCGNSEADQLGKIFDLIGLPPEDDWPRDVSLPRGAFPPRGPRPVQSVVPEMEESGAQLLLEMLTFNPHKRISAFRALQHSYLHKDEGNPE
Chain of cdk4/D (P24385 whole entry, further chain): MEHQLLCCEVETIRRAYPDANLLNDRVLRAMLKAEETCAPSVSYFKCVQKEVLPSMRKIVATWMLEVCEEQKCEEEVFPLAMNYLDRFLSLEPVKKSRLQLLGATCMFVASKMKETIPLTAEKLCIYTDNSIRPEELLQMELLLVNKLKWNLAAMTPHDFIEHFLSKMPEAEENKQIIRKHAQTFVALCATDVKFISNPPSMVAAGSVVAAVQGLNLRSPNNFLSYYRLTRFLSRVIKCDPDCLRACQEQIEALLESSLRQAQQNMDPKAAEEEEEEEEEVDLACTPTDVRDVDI
The target of the next assay is Cdk5/p25 (Homo sapiens, UniProt Q00535). Briefly: Cyclin-Dependent Kinase 5 High Throughput Screening (cdk5-HTS) Assay. The class given is biochemical. Particulars: high throughput screen. In outline:
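Cdk5/p25 (1.0 μg/mL) phosphorylates GST-RbCOOH (20 μg/mL) in 50 mM Tris pH 7.4 with 10 mM MgCl2 and 20 μM ATP spiked with [γ33P]ATP, 30 min at room temperature. After EDTA stop, substrate captured on glutathione-coated plates; 33P incorporation counted by scintillation; IC50 determined.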

The target in the next assay is cdc2/cyclinB (Homo sapiens, UniProt P06493). Briefly: Cyclin-Dependent Kinase Assay cdc2/cyclinB.
Chain of cdc2/cyclinB (P06493 whole entry): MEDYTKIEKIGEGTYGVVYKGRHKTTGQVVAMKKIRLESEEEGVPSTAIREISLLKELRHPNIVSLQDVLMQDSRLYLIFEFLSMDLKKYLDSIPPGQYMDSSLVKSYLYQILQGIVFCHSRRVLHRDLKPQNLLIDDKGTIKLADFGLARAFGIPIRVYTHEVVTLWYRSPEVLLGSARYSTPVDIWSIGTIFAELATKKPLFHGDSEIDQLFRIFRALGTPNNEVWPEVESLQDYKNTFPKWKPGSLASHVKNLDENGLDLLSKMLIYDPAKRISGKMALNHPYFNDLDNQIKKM
Chain of cdc2/cyclinB (P14635 whole entry, further chain): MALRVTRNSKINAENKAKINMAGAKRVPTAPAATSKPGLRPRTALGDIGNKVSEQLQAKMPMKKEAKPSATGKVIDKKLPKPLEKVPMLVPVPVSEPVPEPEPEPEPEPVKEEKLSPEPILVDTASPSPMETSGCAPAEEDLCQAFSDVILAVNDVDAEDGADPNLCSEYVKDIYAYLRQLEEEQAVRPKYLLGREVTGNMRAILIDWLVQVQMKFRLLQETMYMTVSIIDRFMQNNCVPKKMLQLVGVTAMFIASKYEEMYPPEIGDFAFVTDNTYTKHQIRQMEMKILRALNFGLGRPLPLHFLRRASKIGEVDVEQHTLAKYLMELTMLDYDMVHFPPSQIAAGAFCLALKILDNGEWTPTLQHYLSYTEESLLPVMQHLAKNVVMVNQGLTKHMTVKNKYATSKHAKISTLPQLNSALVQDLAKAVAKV

For `CC(C)n1c(=O)ccc2cnc(Nc3ccc(Cl)c(C(F)(F)F)c3)nc21` [Example 421, 2-(4-Chloro-3-trifluoromethyl-phenylamino)-8-isopropyl-8H-pyrido[2,3-d]pyrimidin-7-one], the pIC50 was 6.04 at cdk2/cyclinA; 5.41 at cdk2/cyclinE; 5.72 on cdk4/D; 7.08 against Cdk5/p25; 6.15 at cdc2/cyclinB.
On the same counts, the results for `COc1ccc(Nc2ncc3ccc(=O)n(C(C)C)c3n2)cc1F` [Example 422, 2-(3-Fluoro-4-methoxy-phenylamino)-8-isopropyl-8H-pyrido[2,3-d]pyrimidin-7-one] are 6.77, 6.77, 7.18, 8.01 and 6.80.
In the case of `CC(=O)Nc1cc(Nc2ncc3ccc(=O)n(C(C)C)c3n2)ccc1C#N` [Example 424, N-[2-Cyano-5-(8-isopropyl-7-oxo-7,8-dihydro-pyrido[2,3-d]pyrimidin-2-ylamino)-phenyl]-acetamide], the pIC50 is 6.34 at cdk2/cyclinA; 6.44 at cdk2/cyclinE; 7.00 on cdk4/D; 7.41 on Cdk5/p25; 6.28 against cdc2/cyclinB.
On to `COc1cc(Nc2ncc3ccc(=O)n(C(C)C)c3n2)cc(C(F)(F)F)c1` [Example 425, 8-Isopropyl-2-(3-methoxy-5-trifluoromethyl-phenylamino)-8H-pyrido[2,3-d]pyrimidin-7-one], for which the pIC50 against cdk2/cyclinA was 5.74; on cdk2/cyclinE, 6.11; on cdk4/D, 6.07; at Cdk5/p25 it was 6.74; on cdc2/cyclinB it was 6.31.
On to `CC(C)n1c(=O)ccc2cnc(Nc3ccc(F)c(F)c3)nc21` [Example 426, 2-(3,4-Difluoro-phenylamino)-8-isopropyl-8H-pyrido[2,3-d]pyrimidin-7-one], for which the pIC50 is 6.68 on cdk2/cyclinA; 6.89 at cdk2/cyclinE; 7.24 on cdk4/D; 7.68 against Cdk5/p25; 6.51 at cdc2/cyclinB.
On the same counts, the results for `Cc1ccc(Nc2ncc3ccc(=O)n(C(C)C)c3n2)cc1I` [Example 427, 2-(3-Iodo-4-methyl-phenylamino)-8-isopropyl-8H-pyrido[2,3-d]pyrimidin-7-one] are 6.23, 6.80, 6.85, 7.68 and 6.80.
Take `CC(C)n1c(=O)ccc2cnc(Nc3cc(Cl)cc(Cl)c3)nc21` [Example 429, 2-(3,5-Dichloro-phenylamino)-8-isopropyl-8H-pyrido[2,3-d]pyrimidin-7-one]: the pIC50 is 6.07 at cdk2/cyclinA; 6.92 against cdk2/cyclinE; 6.25 on cdk4/D; 7.41 against Cdk5/p25; 6.64 against cdc2/cyclinB.
As for `CC(C)n1c(=O)ccc2cnc(Nc3cccc(S(N)(=O)=O)c3)nc21` [Example 430, 3-(8-Isopropyl-7-oxo-7,8-dihydro-pyrido[2,3-d]pyrimidin-2-ylamino)-benzenesulfonamide], the pIC50 was 6.62 at cdk2/cyclinA; 7.02 against cdk2/cyclinE; 7.46 at cdk4/D; 7.82 on Cdk5/p25; 6.74 against cdc2/cyclinB.
As for `CC(C)n1c(=O)ccc2cnc(Nc3ccc4c(c3)CCCC4=O)nc21` [Example 431, 8-Isopropyl-2-(5-oxo-5,6,7,8-tetrahydro-naphthalen-2-ylamino)-8H-pyrido[2,3-d]pyrimidin-7-one], the pIC50 against cdk2/cyclinA was 6.52; against cdk2/cyclinE it was 6.92; on cdk4/D, 6.85; against Cdk5/p25, 7.64; at cdc2/cyclinB it was 6.77.
Turning to `CC(=O)N(C)c1ccc(Nc2ncc3ccc(=O)n(C(C)C)c3n2)cc1` [Example 432, N-[4-(8-Isopropyl-7-oxo-7,8-dihydro-pyrido[2,3-d]pyrimidin-2-ylamino)-phenyl]-N-methyl-acetamide], the pIC50 against cdk2/cyclinA is 6.38; at cdk2/cyclinE, 6.41; at cdk4/D it was 6.82; on Cdk5/p25, 7.22; against cdc2/cyclinB it was 6.27.
As for `CC(C)n1c(=O)ccc2cnc(Nc3ccc(C#N)cc3)nc21` [Example 433, 4-(8-Isopropyl-7-oxo-7,8-dihydro-pyrido[2,3-d]pyrimidin-2-ylamino)-benzonitrile], the pIC50 is 6.80 on cdk2/cyclinA; 6.64 against cdk2/cyclinE; 6.60 on cdk4/D; 7.12 at Cdk5/p25; 6.32 against cdc2/cyclinB.
As for `Cc1ccc(Nc2ncc3ccc(=O)n(C(C)C)c3n2)cc1C` [Example 434, 2-(3,4-Dimethyl-phenylamino)-8-isopropyl-8H-pyrido[2,3-d]pyrimidin-7-one], the pIC50 was 6.40 at cdk2/cyclinA; 6.28 against cdk2/cyclinE; 6.46 on cdk4/D; 7.27 against Cdk5/p25; 6.33 at cdc2/cyclinB.
For the compound `CC(C)n1c(=O)ccc2cnc(Nc3ccc4cn[nH]c4c3)nc21` [Example 438, 2-(1H-Indazol-6-ylamino)-8-isopropyl-8H-pyrido[2,3-d]pyrimidin-7-one], the pIC50 against cdk2/cyclinA was 6.42; at cdk2/cyclinE it was 6.16; at cdk4/D, 5.95; against Cdk5/p25, 6.67; on cdc2/cyclinB, 6.02.
For `CC(=O)Nc1cc(Nc2ncc3ccc(=O)n(C(C)C)c3n2)ccc1C` [Example 440, N-[5-(8-Isopropyl-7-oxo-7,8-dihydro-pyrido[2,3-d]pyrimidin-2-ylamino)-2-methyl-phenyl]-acetamide], the pIC50 on cdk2/cyclinA was 5.96; on cdk2/cyclinE, 5.82; at cdk4/D it was 6.82; at Cdk5/p25, 6.36; at cdc2/cyclinB, 5.85.
On the same counts, the results for `Cc1cc(Nc2ncc3ccc(=O)n(C(C)C)c3n2)cc(C)c1O` [Example 441, 2-(4-Hydroxy-3,5-dimethyl-phenylamino)-8-isopropyl-8H-pyrido[2,3-d]pyrimidin-7-one] are 6.54, 6.33, 6.05, 6.82 and 6.54.
In the case of `Cc1cc(Nc2ncc3ccc(=O)n(C(C)C)c3n2)ccc1Br` [Example 442, 2-(4-Bromo-3-methyl-phenylamino)-8-isopropyl-8H-pyrido[2,3-d]pyrimidin-7-one], the pIC50 against cdk2/cyclinA was 5.77; against cdk2/cyclinE it was 5.44; at cdk4/D, 5.44; at Cdk5/p25, 6.36; against cdc2/cyclinB, 5.72.
For the compound `CC(C)n1c(=O)ccc2cnc(Nc3ccc(C(F)(F)F)cc3)nc21` [Example 443, 8-Isopropyl-2-(4-trifluoromethyl-phenylamino)-8H-pyrido[2,3-d]pyrimidin-7-one], the pIC50 against cdk2/cyclinA is 6.70; at cdk2/cyclinE, 6.77; at cdk4/D, 6.49; against Cdk5/p25 it was 7.15; on cdc2/cyclinB, 6.28.
On to `CC(C)n1c(=O)ccc2cnc(Nc3ccc(OC(F)(F)F)cc3)nc21` [Example 444, 8-Isopropyl-2-(4-trifluoromethoxy-phenylamino)-8H-pyrido[2,3-d]pyrimidin-7-one], for which the pIC50 was 7.12 at cdk2/cyclinA; 6.15 against cdk2/cyclinE; 6.44 on cdk4/D; 7.20 on Cdk5/p25; 6.28 against cdc2/cyclinB.
On the same counts, the results for `CCC(C)n1c(=O)ccc2cnc(Nc3ccccc3)nc21` (stereo not drawn) [Example 446, 8-sec-Butyl-2-phenylamino-8H-pyrido[2,3-d]pyrimidin-7-one] are 6.67, 6.75, 6.78, 7.13 and 6.47.
`CCC(C)n1c(=O)ccc2cnc(Nc3ccc4[nH]ccc4c3)nc21` (stereo not drawn) [Example 447, 8-sec-Butyl-2-(1H-indol-5-ylamino)-8H-pyrido[2,3-d]pyrimidin-7-one]: the pIC50 against cdk2/cyclinA is 6.84; against cdk2/cyclinE it was 7.22; at cdk4/D, 7.35; against Cdk5/p25 it was 7.72; at cdc2/cyclinB, 7.05.
Regarding `CCC(C)n1c(=O)ccc2cnc(Nc3ccc4[nH]ncc4c3)nc21` (stereo not drawn) [Example 448, 8-sec-Butyl-2-(1H-indazol-5-ylamino)-8H-pyrido[2,3-d]pyrimidin-7-one], the pIC50 against cdk2/cyclinA is 7.28; against cdk2/cyclinE, 7.70; at cdk4/D it was 7.34; on Cdk5/p25, 8.07; at cdc2/cyclinB, 7.58.
For `CCC(C)n1c(=O)ccc2cnc(Nc3ccc4[nH]nnc4c3)nc21` (stereo not drawn) [Example 449, 2-(1H-Benzotriazol-5-ylamino)-8-sec-butyl-8H-pyrido[2,3-d]pyrimidin-7-one], the pIC50 was 7.39 against cdk2/cyclinA; 7.76 against cdk2/cyclinE; 6.89 on cdk4/D; 8.11 at Cdk5/p25; 7.11 at cdc2/cyclinB.
In the case of `CCC(C)n1c(=O)ccc2cnc(Nc3ccc(NC(=O)OC(C)(C)C)cc3)nc21` (stereo not drawn) [Example 450, [4-(8-sec-Butyl-7-oxo-7,8-dihydro-pyrido[2,3-d]pyrimidin-2-ylamino)-phenyl]-carbamic acid tert-butyl ester], the pIC50 against cdk2/cyclinA is 6.58; at cdk2/cyclinE it was 6.89; on cdk4/D, 6.95; against Cdk5/p25, 7.19; against cdc2/cyclinB, 6.85.
In the case of `CCC(C)n1c(=O)ccc2cnc(Nc3ccc(O)cc3F)nc21` (stereo not drawn) [Example 451, 8-sec-Butyl-2-(2-fluoro-4-hydroxy-phenylamino)-8H-pyrido[2,3-d]pyrimidin-7-one], the pIC50 against cdk2/cyclinA was 6.26; against cdk2/cyclinE, 6.62; on cdk4/D, 6.35; at Cdk5/p25 it was 6.88; on cdc2/cyclinB, 6.23.
